The values that follow come from ChEMBL document CHEMBL1201862, “PubChem BioAssay data set” (2004).

The GI50 is the concentration at which growth is held to half of that of the control.

Some test systems named below: COLO 205; HL-60; SN12C; LOX IMVI; CCRF-CEM; SF-295; NCI-H460; KM12; TK-10; MDA-MB-231; Hs-578T; T47D; PC-3; MDA-MB-435; NCI/ADR-RES; MCF7; DU-145; MDA-N.
Common to all, as to assay: DTP human tumour cell line panel, 48 h

Structures are written as SMILES. Several values for one entry are separate records, joined by “and”; a condition that tells them apart may be missing. Identical values can stand only once.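 Interpolation was linear, between the two tested concentrations surrounding the appropriate level; five concentrations were tested over 48 hours in 96-well plates. The concentration for 50% growth inhibition is given as GI50.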 Activity calls are given as the source filed them. No stated cut-off is given here; in the data, active = GI50 up to about 1.1 µM and inactive = higher. Bounds are passed on as bounds.

With `CC1(CO)OC(n2cnc3c(N)ncnc32)C(O)C1O` (centres undefined), the GI50 in the test on COLO 205, in the test on HL-60, in the test on SN12C, in the test on LOX IMVI, in the test on CCRF-CEM and in the test with SF-295 was > 100 µM (inactive) in each case. The GI50 in the test with NCI-H460, with KM12 and in the test with TK-10 was > 100 µM (inactive) in each case.
In the case of `CC(C)[C@H]1CO[C@@H]2O[C@H](C)CC(=O)N21`, the GI50 in the test with COLO 205, with HL-60, in the test with SN12C, in the test with CCRF-CEM, in the test on SF-295 and with NCI-H460 was > 100 µM (inactive) throughout. In addition, the GI50 in the test with KM12 and in the test on TK-10 was > 100 µM (inactive) throughout.
As for `Cc1ccc(O)c(C(c2ccc([N+](=O)[O-])cc2)c2cc(C)ccc2O)c1`, the GI50 in the test on MDA-MB-231 was 12 µM (inactive); in the test with COLO 205, 20.7 µM (inactive); with Hs-578T, 7.69 µM (inactive); with T47D it was 11.2 µM (inactive); in the test with HL-60, 1.47 µM (inactive); with PC-3 it was 3.59 µM (inactive). Further, the GI50 is 13.7 µM (inactive) in the test with SN12C; 10.9 µM (inactive) in the test on MDA-MB-435; 10.7 µM (inactive) in the test on NCI/ADR-RES; 22.7 µM (inactive) with LOX IMVI; 10.8 µM (inactive) in the test with CCRF-CEM; 14.5 µM (inactive) in the test on SF-295. The GI50 was 4.98 µM (inactive) in the test with MCF7, 7.35 µM (inactive) in the test with KM12, 16.3 µM (inactive) in the test with TK-10 and 12.1 µM (inactive) with DU-145.
For `CC12C3C4C1C1C2C3C41CO` (centres undefined), the GI50 in the test on MDA-MB-231, with COLO 205, in the test on MDA-N, with HL-60, in the test with SN12C and in the test with MDA-MB-435 was > 100 µM (inactive) throughout. The GI50 in the test on NCI/ADR-RES, in the test with LOX IMVI, in the test with CCRF-CEM, in the test on SF-295, in the test on MCF7 and with NCI-H460 was > 100 µM (inactive) in each case. The GI50 in the test with KM12, in the test on TK-10 and in the test on DU-145 was > 100 µM (inactive) throughout.
Take `OC1C2CCC3C2CC(C(O)(c2ccccc2)c2ccccc2)C13` (centres undefined): the GI50 in the test on MDA-MB-231 is 29.6 µM (inactive); with COLO 205, 18.5 µM (inactive); with Hs-578T, 45.9 µM (inactive); in the test with MDA-N it was 33.3 µM (inactive); with T47D it was 79.3 µM (inactive); in the test with PC-3 it was 21.4 µM (inactive). The GI50 in the test with SN12C was 21.9 µM (inactive); with MDA-MB-435 it was 32.6 µM (inactive); with NCI/ADR-RES it was 36.6 µM (inactive); in the test on LOX IMVI, 37.8 µM (inactive); with CCRF-CEM, 29.4 µM (inactive); with SF-295, 28 µM (inactive). In addition, the GI50 with MCF7 was 84.5 µM (inactive); in the test on NCI-H460, 41.3 µM (inactive); with KM12 it was 61.7 µM (inactive); in the test on TK-10, 73.5 µM (inactive); in the test on DU-145, > 100 µM (inactive).
`O=C(CCC(NC(=O)OCc1ccccc1)C(=O)OCc1ccccc1)Nc1cccc(OCc2ccccc2)c1` (centres undefined): the GI50 was 25.4 µM (inactive) with MDA-MB-231; 15.7 µM (inactive) with COLO 205; 18.4 µM (inactive) with Hs-578T; 32.1 µM (inactive) in the test on MDA-N; 19.5 µM (inactive) in the test on T47D; 15.4 µM (inactive) in the test on HL-60. The GI50 was 13.2 µM (inactive) in the test with PC-3; 20.2 µM (inactive) in the test on SN12C; 20 µM (inactive) in the test on MDA-MB-435; 36.2 µM (inactive) with NCI/ADR-RES; 19.3 µM (inactive) with LOX IMVI; 27.3 µM (inactive) in the test with CCRF-CEM. Moreover, the GI50 in the test on SF-295 was 59.6 µM (inactive); in the test on MCF7, 20.7 µM (inactive); in the test with NCI-H460, 23.6 µM (inactive); with KM12, 34.8 µM (inactive); in the test on TK-10, 29.4 µM (inactive); in the test with DU-145, 28.4 µM (inactive).
Regarding `COc1ccc(CCc2ccc(O)c(C(=O)O)c2)cc1OC`, the GI50 is 57.8 µM (inactive) in the test on MDA-MB-231; > 100 µM (inactive) in the test with COLO 205; > 100 µM (inactive) in the test on Hs-578T; > 100 µM (inactive) in the test with MDA-N; > 100 µM (inactive) in the test with T47D; > 100 µM (inactive) in the test on HL-60. In addition, the GI50 is > 100 µM (inactive) with PC-3; > 100 µM (inactive) in the test with SN12C; > 100 µM (inactive) in the test with MDA-MB-435; > 100 µM (inactive) in the test on NCI/ADR-RES; 7.5 µM (inactive) in the test with LOX IMVI; 50.7 µM (inactive) with CCRF-CEM. Also, the GI50 with SF-295, with MCF7, in the test on NCI-H460, in the test on KM12, in the test with TK-10 and with DU-145 was > 100 µM (inactive) in each case.
Turning to `CCCCCCC1NN(C(C)=O)C(CCCCCC)NN1C(C)=O` (centres undefined), the GI50 with COLO 205 was > 100 µM (inactive); in the test on HL-60 it was 46.5 µM (inactive); in the test with SN12C it was > 100 µM (inactive); in the test on LOX IMVI, 19.9 µM (inactive); in the test with CCRF-CEM it was 42.2 µM (inactive); in the test with SF-295, > 100 µM (inactive). In addition, the GI50 in the test on NCI-H460 is 17.7 µM (inactive); with KM12, > 100 µM (inactive); in the test on TK-10, > 100 µM (inactive).
Take `O=C1OC(c2ccccc2)=N/C1=C\c1ccccc1`: the GI50 was > 100 µM (inactive) in the test with MDA-MB-231; 58.7 µM (inactive) and 36.7 µM (inactive) in the test on Hs-578T; 44.7 µM (inactive) in the test with MDA-N; > 100 µM (inactive) in the test with T47D; 29.5 µM (inactive) and 18.7 µM (inactive) in the test with HL-60; > 100 µM (inactive) with PC-3. For the same compound, the GI50 was 66.4 µM (inactive) in the test on SN12C; 64 µM (inactive) and 56 µM (inactive) with MDA-MB-435; 29.2 µM (inactive) and 40.7 µM (inactive) in the test on NCI/ADR-RES; 17.1 µM (inactive) and 23.3 µM (inactive) in the test on LOX IMVI; 21 µM (inactive) and 24.6 µM (inactive) in the test on CCRF-CEM; 69 µM (inactive) and 68.2 µM (inactive) in the test on SF-295. The GI50 is 48.4 µM (inactive) and 96.6 µM (inactive) in the test with MCF7; 45.9 µM (inactive) and 43.9 µM (inactive) with NCI-H460; 34.8 µM (inactive) and 26.6 µM (inactive) in the test on KM12; 62.7 µM (inactive) and 78.2 µM (inactive) in the test with TK-10; > 100 µM (inactive) and 59 µM (inactive) with DU-145.
For the compound `c1ccc(/N=C(\N2CCCCC2)N(CCN2CCCCC2)c2ccccc2)cc1`, the GI50 with MDA-MB-231 is 1.39 µM (inactive); in the test on COLO 205, 0.658 µM (active); in the test on Hs-578T, 0.944 µM (active); in the test with MDA-N, 0.718 µM (active); in the test with T47D, 1.08 µM (active); in the test with HL-60, 0.277 µM (active). In addition, the GI50 is 0.53 µM (active) in the test with PC-3; 2.11 µM (inactive) with SN12C; 1.51 µM (inactive) with MDA-MB-435; 1.65 µM (inactive) with NCI/ADR-RES; 0.622 µM (active) with LOX IMVI; 1 µM (active) with CCRF-CEM. In addition, the 50% growth inhibitory concentration (GI50) with SF-295 is 1.04 µM (active); in the test with NCI-H460, 0.274 µM (active); with TK-10 it was 2.96 µM (inactive); with DU-145, 2.1 µM (inactive).
As to `CN(CC(=O)O)c1ncc2c(n1)-c1ccccc1OC2c1ccccc1` (centres undefined), the GI50 is > 100 µM (inactive) in the test with MDA-MB-231; > 100 µM (inactive) in the test on COLO 205; > 100 µM (inactive) with Hs-578T; > 100 µM (inactive) with MDA-N; 33.2 µM (inactive) with HL-60; 61.1 µM (inactive) with PC-3. Besides, the GI50 is > 100 µM (inactive) with SN12C; > 100 µM (inactive) in the test with MDA-MB-435; > 100 µM (inactive) with NCI/ADR-RES; > 100 µM (inactive) in the test on LOX IMVI; 44.3 µM (inactive) in the test on CCRF-CEM; > 100 µM (inactive) with SF-295. For the same compound, the GI50 is > 100 µM (inactive) with MCF7; 89.7 µM (inactive) with NCI-H460; 79.6 µM (inactive) in the test on KM12; > 100 µM (inactive) with TK-10; > 100 µM (inactive) in the test on DU-145.
Take `CC1(CO)COS(=O)OC1` (centres undefined): the GI50 with MDA-MB-231, with COLO 205, in the test with Hs-578T, in the test with MDA-N, in the test with T47D and in the test on PC-3 was > 100 µM (inactive) in each case. Further, the GI50 in the test on SN12C, in the test on MDA-MB-435, in the test on NCI/ADR-RES, in the test with LOX IMVI, with CCRF-CEM and with SF-295 was > 100 µM (inactive) each time. The GI50 in the test on MCF7, in the test on NCI-H460, in the test with KM12, in the test with TK-10 and in the test with DU-145 was > 100 µM (inactive) in each case.
Turning to `CC1=C2c3ccccc3N(C(=O)/C=C/C(=O)O)[C@H]2[C@H]2C(=O)OC(=O)[C@H]2C1`, the GI50 in the test with MDA-MB-231, with COLO 205, in the test with Hs-578T, in the test with MDA-N, in the test on T47D and with HL-60 was > 10 µM (inactive) throughout. Besides, the GI50 with PC-3, with SN12C, with MDA-MB-435, with NCI/ADR-RES, with CCRF-CEM and in the test with SF-295 was > 10 µM (inactive) throughout. Further, the GI50 in the test with MCF7, in the test on NCI-H460, in the test with KM12, with TK-10 and in the test on DU-145 was > 10 µM (inactive) each time.
